Source: patent US10681909B2, “Herbicidal triazoles” (FMC Corporation, priority 2014, dated 2020)

Key:
[1] = tested on: barnyardgrass; test: Test A preemergence; assay type: in vivo, Echinochloa crus-galli; conditions: 0 to 100 scale (0 no effect, 100 complete control)
Summary of the method: (§1)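 For preemergence, seeds were sown in a loam soil-sand blend and given a directed soil spray of test chemical in a non-phytotoxic solvent mixture with surfactant. For postemergence, plants in pots of the same blend were sprayed with the same formulation at the one- to two-leaf stage, 2 to 10 cm tall.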

[2] = tested on: foxtail, giant; test: Test A postemergence; assay type: in vivo, Setaria faberii; conditions: 0 to 100 scale (0 no effect, 100 complete control), approx. 10 d
Summary of the method: as §1

[3] = tested on: crabgrass, large; test: Test A postemergence; assay type: in vivo, Digitaria sanguinalis; conditions: 0 to 100 scale (0 no effect, 100 complete control), approx. 10 d
Summary of the method: as §1

[4] = tested on: crabgrass, large; test: Test A preemergence; assay type: in vivo, Digitaria sanguinalis; conditions: 0 to 100 scale (0 no effect, 100 complete control)
Summary of the method: as §1

[5] = tested on: corn; test: Test A postemergence; assay type: in vivo, Zea mays; conditions: 0 to 100 scale (0 no effect, 100 complete control), approx. 10 d
Summary of the method: as §1

[6] = tested on: barnyardgrass; test: Test A postemergence; assay type: in vivo, Echinochloa crus-galli; conditions: 0 to 100 scale (0 no effect, 100 complete control), approx. 10 d
Summary of the method: as §1

[7] = tested on: barnyardgrass; test: Test C flooded paddy test; assay type: in vivo, Echinochloa crus-galli; conditions: Flood, applied to paddy water, rating after 13 to 15 d
Description: (§2) At time of treatment, test pots were flooded to 3 cm above the soil surface, treated by application of test compounds directly to the paddy water, and then maintained at that water depth for the duration of the test. Treated plants and controls were maintained in a greenhouse for 13 to 15 d, after which time all species were compared to controls and visually evaluated. […] A dash (-) response means no test result.

[8] = tested on: velvetleaf; test: Test A preemergence; assay type: in vivo, Abutilon theophrasti; conditions: 0 to 100 scale (0 no effect, 100 complete control)
Summary of the method: as §1

[9] = tested on: foxtail, giant; test: Test A preemergence; assay type: in vivo, Setaria faberii; conditions: 0 to 100 scale (0 no effect, 100 complete control)
Summary of the method: as §1

[10] = tested on: morningglory; test: Test A preemergence; assay type: in vivo, Ipomoea spp.; conditions: 0 to 100 scale (0 no effect, 100 complete control)
Summary of the method: as §1

[11] = tested on: wheat; test: Test A postemergence; assay type: in vivo, Triticum aestivum; conditions: 0 to 100 scale (0 no effect, 100 complete control), approx. 10 d
Summary of the method: as §1

[12] = tested on: rice; test: Test C flooded paddy test; assay type: in vivo, Oryza sativa; conditions: Flood, applied to paddy water, rating after 13 to 15 d
Description: as §2

[13] = tested on: pigweed; test: Test A postemergence; assay type: in vivo, Amaranthus retroflexus; conditions: 0 to 100 scale (0 no effect, 100 complete control), approx. 10 d
Summary of the method: as §1

[14] = tested on: corn; test: Test A preemergence; assay type: in vivo, Zea mays; conditions: 0 to 100 scale (0 no effect, 100 complete control)
Summary of the method: as §1

[15] = tested on: morningglory; test: Test A postemergence; assay type: in vivo, Ipomoea spp.; conditions: 0 to 100 scale (0 no effect, 100 complete control), approx. 10 d
Summary of the method: as §1

[16] = tested on: sedge, umbrella; test: Test C flooded paddy test; assay type: in vivo, Cyperus difformis; conditions: Flood, applied to paddy water, rating after 13 to 15 d
Description: as §2

[17] = tested on: velvetleaf; test: Test A postemergence; assay type: in vivo, Abutilon theophrasti; conditions: 0 to 100 scale (0 no effect, 100 complete control), approx. 10 d
Summary of the method: as §1

[18] = tested on: wheat; test: Test A preemergence; assay type: in vivo, Triticum aestivum; conditions: 0 to 100 scale (0 no effect, 100 complete control)
Summary of the method: as §1

[19] = tested on: ducksalad; test: Test C flooded paddy test; assay type: in vivo, Heteranthera limosa; conditions: Flood, applied to paddy water, rating after 13 to 15 d
Description: as §2

[20] = tested on: pigweed; test: Test A preemergence; assay type: in vivo, Amaranthus retroflexus; conditions: 0 to 100 scale (0 no effect, 100 complete control)
Summary of the method: as §1

Structure (SMILES): Cc1nc(-c2ccc(C(F)(F)F)cc2)nn1Cc1cccc(OC(F)(F)F)c1 [Compound 4]
- Plant response rating, Barnyardgrass ([1]; 125 g ai/ha): 0
- Plant response rating, Barnyardgrass ([1]; 500 g ai/ha, approx. 10 d): 0
- Plant response rating, Foxtail, Giant ([2]; 125 g ai/ha): 10
- Plant response rating, Foxtail, Giant ([2]; 500 g ai/ha): 10
- Plant response rating, Crabgrass, Large ([3]; 125 g ai/ha): 10
- Plant response rating, Crabgrass, Large ([3]; 500 g ai/ha): 10
- Plant response rating, Crabgrass, Large ([4]; 125 g ai/ha): 0
- Plant response rating, Crabgrass, Large ([4]; 500 g ai/ha, approx. 10 d): 0
- Plant response rating, Corn ([5]; 125 g ai/ha): 10
- Plant response rating, Corn ([5]; 500 g ai/ha): 10
- Plant response rating, Barnyardgrass ([6]; 125 g ai/ha): 0
- Plant response rating, Barnyardgrass ([6]; 500 g ai/ha): 10
- Barnyardgrass plant response rating (0 to 100) ([7]; 31 g ai/ha): 0
- Barnyardgrass plant response rating (0 to 100) ([7]; 62 g ai/ha): 0
- Barnyardgrass plant response rating (0 to 100) ([7]; 125 g ai/ha): 0
- Barnyardgrass plant response rating (0 to 100) ([7]; 250 g ai/ha): 0
- Plant response rating, Velvetleaf ([8]; 125 g ai/ha): 0
- Plant response rating, Velvetleaf ([8]; 500 g ai/ha, approx. 10 d): 0
- Plant response rating, Foxtail, Giant ([9]; 125 g ai/ha): 0
- Plant response rating, Foxtail, Giant ([9]; 500 g ai/ha, approx. 10 d): 0
- Plant response rating, Morningglory ([10]; 125 g ai/ha): 0
- Plant response rating, Morningglory ([10]; 500 g ai/ha, approx. 10 d): 0
- Plant response rating, Wheat ([11]; 125 g ai/ha): 0
- Plant response rating, Wheat ([11]; 500 g ai/ha): 0
- Rice plant response rating (0 to 100) ([12]; 31 g ai/ha): 0
- Rice plant response rating (0 to 100) ([12]; 62 g ai/ha): 0
- Rice plant response rating (0 to 100) ([12]; 125 g ai/ha): 0
- Rice plant response rating (0 to 100) ([12]; 250 g ai/ha): 0
- Plant response rating, Pigweed ([13]; 125 g ai/ha): 40
- Plant response rating, Pigweed ([13]; 500 g ai/ha): 80
- Plant response rating, Corn ([14]; 125 g ai/ha): 0
- Plant response rating, Corn ([14]; 500 g ai/ha, approx. 10 d): 0
- Plant response rating, Morningglory ([15]; 125 g ai/ha): 10
- Plant response rating, Morningglory ([15]; 500 g ai/ha): 60
- Sedge, Umbrella plant response rating (0 to 100) ([16]; 31 g ai/ha): 0
- Sedge, Umbrella plant response rating (0 to 100) ([16]; 62 g ai/ha): 0
- Sedge, Umbrella plant response rating (0 to 100) ([16]; 125 g ai/ha): 0
- Sedge, Umbrella plant response rating (0 to 100) ([16]; 250 g ai/ha): 0
- Plant response rating, Velvetleaf ([17]; 125 g ai/ha): 0
- Plant response rating, Velvetleaf ([17]; 500 g ai/ha): 10
- Plant response rating, Wheat ([18]; 125 g ai/ha): 0
- Plant response rating, Wheat ([18]; 500 g ai/ha, approx. 10 d): 0
- Ducksalad plant response rating (0 to 100) ([19]; 31 g ai/ha): 0
- Ducksalad plant response rating (0 to 100) ([19]; 62 g ai/ha): 0
- Ducksalad plant response rating (0 to 100) ([19]; 125 g ai/ha): 0
- Ducksalad plant response rating (0 to 100) ([19]; 250 g ai/ha): 0
- Plant response rating, Pigweed ([20]; 125 g ai/ha): 0
- Plant response rating, Pigweed ([20]; 500 g ai/ha, approx. 10 d): 0

Structure (SMILES): Cc1nc(-c2ccc(C(F)(F)F)cc2)nn1Cc1cccc(C(F)(F)F)c1 [Compound 3]
- Plant response rating, Barnyardgrass ([1]; 125 g ai/ha): 0
- Plant response rating, Barnyardgrass ([1]; 500 g ai/ha, approx. 10 d): 0
- Plant response rating, Foxtail, Giant ([2]; 125 g ai/ha): 10
- Plant response rating, Foxtail, Giant ([2]; 500 g ai/ha): 30
- Plant response rating, Crabgrass, Large ([3]; 125 g ai/ha): 10
- Plant response rating, Crabgrass, Large ([3]; 500 g ai/ha): 40
- Plant response rating, Crabgrass, Large ([4]; 125 g ai/ha): 0
- Plant response rating, Crabgrass, Large ([4]; 500 g ai/ha, approx. 10 d): 40
- Plant response rating, Corn ([5]; 125 g ai/ha): 10
- Plant response rating, Corn ([5]; 500 g ai/ha): 20
- Plant response rating, Barnyardgrass ([6]; 125 g ai/ha): 0
- Plant response rating, Barnyardgrass ([6]; 500 g ai/ha): 10
- Barnyardgrass plant response rating (0 to 100) ([7]; 31 g ai/ha): 0
- Barnyardgrass plant response rating (0 to 100) ([7]; 62 g ai/ha): 20
- Barnyardgrass plant response rating (0 to 100) ([7]; 125 g ai/ha): 20
- Barnyardgrass plant response rating (0 to 100) ([7]; 250 g ai/ha): 20
- Plant response rating, Velvetleaf ([8]; 125 g ai/ha): 0
- Plant response rating, Velvetleaf ([8]; 500 g ai/ha, approx. 10 d): 0
- Plant response rating, Foxtail, Giant ([9]; 125 g ai/ha): 0
- Plant response rating, Foxtail, Giant ([9]; 500 g ai/ha, approx. 10 d): 30
- Plant response rating, Morningglory ([10]; 125 g ai/ha): 0
- Plant response rating, Morningglory ([10]; 500 g ai/ha, approx. 10 d): 0
- Plant response rating, Wheat ([11]; 125 g ai/ha): 0
- Plant response rating, Wheat ([11]; 500 g ai/ha): 0
- Rice plant response rating (0 to 100) ([12]; 31 g ai/ha): 0
- Rice plant response rating (0 to 100) ([12]; 62 g ai/ha): 0
- Rice plant response rating (0 to 100) ([12]; 125 g ai/ha): 0
- Rice plant response rating (0 to 100) ([12]; 250 g ai/ha): 0
- Plant response rating, Pigweed ([13]; 125 g ai/ha): 60
- Plant response rating, Pigweed ([13]; 500 g ai/ha): 100
- Plant response rating, Corn ([14]; 125 g ai/ha): 0
- Plant response rating, Corn ([14]; 500 g ai/ha, approx. 10 d): 0
- Plant response rating, Morningglory ([15]; 125 g ai/ha): 40
- Plant response rating, Morningglory ([15]; 500 g ai/ha): 80
- Sedge, Umbrella plant response rating (0 to 100) ([16]; 31 g ai/ha): 0
- Sedge, Umbrella plant response rating (0 to 100) ([16]; 62 g ai/ha): 0
- Sedge, Umbrella plant response rating (0 to 100) ([16]; 125 g ai/ha): 40
- Sedge, Umbrella plant response rating (0 to 100) ([16]; 250 g ai/ha): 50
- Plant response rating, Velvetleaf ([17]; 125 g ai/ha): 10
- Plant response rating, Velvetleaf ([17]; 500 g ai/ha): 40
- Plant response rating, Wheat ([18]; 125 g ai/ha): 0
- Plant response rating, Wheat ([18]; 500 g ai/ha, approx. 10 d): 0
- Ducksalad plant response rating (0 to 100) ([19]; 31 g ai/ha): 0
- Ducksalad plant response rating (0 to 100) ([19]; 62 g ai/ha): 20
- Ducksalad plant response rating (0 to 100) ([19]; 125 g ai/ha): 30
- Ducksalad plant response rating (0 to 100) ([19]; 250 g ai/ha): 40
- Plant response rating, Pigweed ([20]; 125 g ai/ha): 10
- Plant response rating, Pigweed ([20]; 500 g ai/ha, approx. 10 d): 80
